Results: patent publication US10647713B2 (Nimbus Lakshmi, Inc., priority 2016, dated 2020)

What follows are molecules tested against human TYK2 (JH2domain-pseudokinase) (Homo sapiens (Human), UniProt P29597) (assay: TYK2 JH2 Domain Binding Assay (KINOMEscan, DiscoveRx)). Conditions: 11-point dilution, duplicate.
How it was run: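 Kd from duplicate 11-point 3-fold dilutions starting at 30,000 nM, fitted by Hill equation with slope fixed at −1. Compounds (final 0.9% DMSO) displace DNA-tagged HEK293-expressed TYK2 JH2 fusion (<0.1 nM) from ligand-coated beads over 1 h at room temperature; eluted kinase read by qPCR.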

human TYK2 (JH2domain-pseudokinase), sequence (P29597 556-888): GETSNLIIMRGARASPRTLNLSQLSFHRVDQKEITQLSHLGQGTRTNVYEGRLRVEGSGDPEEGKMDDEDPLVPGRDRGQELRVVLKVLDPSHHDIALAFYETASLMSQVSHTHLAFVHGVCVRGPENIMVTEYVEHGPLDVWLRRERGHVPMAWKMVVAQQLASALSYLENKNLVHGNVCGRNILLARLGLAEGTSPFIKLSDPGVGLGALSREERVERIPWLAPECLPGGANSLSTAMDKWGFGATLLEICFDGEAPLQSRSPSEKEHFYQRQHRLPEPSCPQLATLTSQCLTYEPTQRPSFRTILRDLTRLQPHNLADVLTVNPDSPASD

| Compound | Kd |
| --- | --- |
| Cc1cc(Nc2cc(Nc3ccc(-c4nc(C)cs4)cc3S(C)(=O)=O)c3nc(C)[nH]c3n2)nc(C)n1 [I-468, N5-(2,6-dimethylpyrimidin-4-yl)-2-methyl-N7-(2-(methylsulfonyl)-4-(4-methylthiazol-2-yl)phenyl)-3H-imidazo[4,5-b]pyridine-5,7-diamine] | 0.1 to 0.5 nM |
| COCc1ccc(Nc2cc(Nc3ccc(F)cc3S(C)(=O)=O)c3nc(C(F)F)[nH]c3n2)nn1 [I-635] | 0.1 to 0.5 nM |
| Cc1csc(-c2ccc(Nc3cc(Nc4cccc(C#N)n4)nc4[nH]c(C)nc34)c(S(C)(=O)=O)c2)n1 [I-504, 6-((2-methyl-7-((2-(methylsulfonyl)-4-(4-methylthiazol-2-yl)phenyl)amino)-3H-imidazo[4,5-b]pyridin-5-yl)amino)picolinonitrile] | 0.1 to 0.5 nM |
| Cc1nc(-c2ccc(Nc3cc(Nc4cc5n(n4)CCOC5)nc4[nH]c(C(F)F)nc34)c(S(C)(=O)=O)c2)sc1C [I-480, 2-(difluoromethyl)-N5-(6,7-dihydro-4H-pyrazolo[5,1-c][1,4]oxazin-2-yl)-N7-(4-(4,5-dimethylthiazol-2-yl)-2-(methylsulfonyl)phenyl)-3H-imidazo[4,5-b]pyridine-5,7-diamine] | 0.1 to 0.5 nM |
| CCS(=O)(=O)N(C)c1ccccc1Nc1cc(Nc2cccc(C#N)n2)nc2[nH]c(C(F)F)nc12 [I-190, N-(2-((5-((6-cyanopyridin-2-yl)amino)-2-(difluoromethyl)-3H-imidazo[4,5-b]pyridin-7-yl)amino)phenyl)-N-methylethanesulfonamide] | > 10 nM |
| CN=[S@@](C)(=O)c1cc(-c2cnn(C)c2C)ccc1Nc1cc(NC(=O)C2CC2)nc2[nH]c(C(F)F)nc12 [I-637] | < 0.1 nM |
| [2H]C([2H])([2H])N(c1ccccc1Nc1cc(Nc2cc(C)nc(C)n2)nc2[nH]c(C)nc12)S(C)(=O)=O [I-201, N-(2-((5-((2,6-dimethylpyrimidin-4-yl)amino)-2-methyl-3H-imidazo[4,5-b]pyridin-7-yl)amino)phenyl)-N-(methyl-d3)methanesulfonamide] | 0.1 to 0.5 nM |
| COc1cc(-c2nn(C)cc2C)ccc1Nc1cc(NC(=O)C2CC2)nc2[nH]c(C)nc12 [I-555, N-(7-((4-(1,4-dimethyl-1H-pyrazol-3-yl)-2-methoxyphenyl)amino)-2-methyl-3H-imidazo[4,5-b]pyridin-5-yl)cyclopropanecarboxamide] | 0.5 to 1 nM |
| Cc1cc(Nc2cc(Nc3ccc(-c4c(C)nn(C)c4C)cc3S(C)(=O)=O)c3nc(C)[nH]c3n2)nc(C)n1 [I-344] | 0.1 to 0.5 nM |
| COc1c(Nc2cc(Nc3cccc(C#N)n3)nc3[nH]c(C)nc23)cccc1-c1cnn(C)n1 [I-540, 6-((7-((2-methoxy-3-(2-methyl-2H-1,2,3-triazol-4-yl)phenyl)amino)-2-methyl-3H-imidazo[4,5-b]pyridin-5-yl)amino)picolinonitrile] | 0.1 to 0.5 nM |
| CN=S(C)(=O)c1cc(-c2cnn(C)c2C)ccc1Nc1cc(NC(=O)C2CC2)nc2[nH]c(C(F)F)nc12 (stereo not shown) [I-631, N-(2-(difluoromethyl)-7-((4-(1,5-dimethyl-1H-pyrazol-4-yl)-2-(N,S-dimethylsulfonimidoyl)phenyl)amino)-3H-imidazo[4,5-b]pyridin-5-yl)cyclopropanecarboxamide] | < 0.1 nM |
| COc1c(Nc2cc(NC(=O)C3CC3)nc3[nH]c(C)nc23)cccc1-c1nc(C)cs1 [I-321, N-(7-((2-methoxy-3-(4-methylthiazol-2-yl)phenyl)amino)-2-methyl-3H-imidazo[4,5-b]pyridin-5-yl)cyclopropanecarboxamide] | 1 to 10 nM |
| COc1c(Nc2cc(NC(=O)C3CC3)nc3[nH]c(C)nc23)cccc1-n1nc(C)nc1C [I-149, N-(7-((3-(3,5-dimethyl-1H-1,2,4-triazol-1-yl)-2-methoxyphenyl)amino)-2-methyl-3H-imidazo[4,5-b]pyridin-5-yl)cyclopropanecarboxamide] | > 10 nM |
| COc1c(Nc2cc(Nc3ccc(N4CCOCC4)cn3)nc3[nH]cnc23)cccc1-c1ncn(C)n1 [I-7, N7-(2-methoxy-3-(1-methyl-1H-1,2,4-triazol-3-yl)phenyl)-N5-(5-morpholinopyridin-2-yl)-3H-imidazo[4,5-b]pyridine-5,7-diamine] | 0.1 to 0.5 nM |
| COc1c(Nc2cc(Nc3ccc(C(C)(C)OC)c(C#N)n3)nc3[nH]c(C(F)F)nc23)cccc1-c1nnn(C)n1 [I-49, 6-((2-(difluoromethyl)-7-((2-methoxy-3-(2-methyl-2H-tetrazol-5-yl)phenyl)amino)-3H-imidazo[4,5-b]pyridin-5-yl)amino)-3-(2-methoxypropan-2-yl)picolinonitrile] | > 10 nM |
| Cc1nc2c(Nc3ccccc3N(C)S(C)(=O)=O)cc(Nc3cccc(C#N)n3)nc2[nH]1 [I-120, N-(2-((5-((6-cyanopyridin-2-yl)amino)-2-methyl-3H-imidazo[4,5-b]pyridin-7-yl)amino)phenyl)-N-methylmethanesulfonamide] | < 0.1 nM |
| Cc1nc2c(Nc3ccc(-c4cnn(C)c4C)cc3S(C)(=O)=O)cc(Nc3cccc(C(F)(F)F)n3)nc2[nH]1 [I-585, N7-(4-(1,5-dimethyl-1H-pyrazol-4-yl)-2-(methylsulfonyl)phenyl)-2-methyl-N5-(6-(trifluoromethyl)pyridin-2-yl)-3H-imidazo[4,5-b]pyridine-5,7-diamine] | 0.1 to 0.5 nM |
| Cc1nc2c(Nc3ccc([C@H]4CCCO4)cc3S(C)(=O)=O)cc(NC(=O)C3CC3)nc2[nH]1 [I-473, (R)—N-(2-methyl-7-((2-(methylsulfonyl)-4-(tetrahydrofuran-2-yl)phenyl)amino)-3H-imidazo[4,5-b]pyridin-5-yl)cyclopropanecarboxamide] | < 0.1 nM |

Further lines, results first:

| Kd | Compound |
| --- | --- |
| 1 to 10 nM | Cc1nc2c(Nc3ccc(-c4cnn(C)c4)cc3N(C)S(C)(=O)=O)cc(NC(=O)[C@H]3CC3(F)F)nc2[nH]1 [I-234, (R)-2,2-difluoro-N-(2-methyl-7-((4-(1-methyl-1H-pyrazol-4-yl)-2-(N-methylmethylsulfonamido)phenyl)amino)-3H-imidazo[4,5-b]pyridin-5-yl)cyclopropane-1-carboxamide] |
| > 10 nM | CS(=O)(=O)c1cc(C2CCC2)ccc1Nc1cc(NC(=O)[C@@H]2CC2(F)F)nc2[nH]c(C(F)F)nc12 [I-318, (S)—N-(7-((4-cyclobutyl-2-(methylsulfonyl)phenyl)amino)-2-(difluoromethyl)-3H-imidazo[4,5-b]pyridin-5-yl)-2,2-difluorocyclopropane-1-carboxamide] |
| 0.1 to 0.5 nM | Cc1nc2c(Nc3ccc(-c4cnn(C)c4)cc3N(C)S(C)(=O)=O)cc(NC(=O)[C@H]3C[C@H]3F)nc2[nH]1 [I-269, (1R,2R)-2-fluoro-N-(2-methyl-7-((4-(1-methyl-1H-pyrazol-4-yl)-2-(N-methylmethylsulfonamido)phenyl)amino)-3H-imidazo[4,5-b]pyridin-5-yl)cyclopropane-1-carboxamide] |
| 1 to 10 nM | CS(=O)(=O)c1cc(C2CCC2)ccc1Nc1cc(NC(=O)C2CC2)nc2[nH]c(C(F)F)nc12 [I-220, N-(7-((4-cyclobutyl-2-(methylsulfonyl)phenyl)amino)-2-(difluoromethyl)-3H-imidazo[4,5-b]pyridin-5-yl)cyclopropanecarboxamide] |
| 0.1 to 0.5 nM | CN(c1cc(C2CCCCO2)ccc1Nc1cc(NC(=O)C2CC2)nc2[nH]c(C(F)F)nc12)S(C)(=O)=O (stereo not shown) [I-369, N-(2-(difluoromethyl)-7-((2-(N-methylmethylsulfonamido)-4-(tetrahydro-2H-pyran-2-yl)phenyl)amino)-3H-imidazo[4,5-b]pyridin-5-yl)cyclopropanecarboxamide] |
| 0.5 to 1 nM | Cc1nc2c(Nc3ccc([C@H]4CCCO4)cc3S(C)(=O)=O)cc(NC(=O)[C@@H]3CC3(F)F)nc2[nH]1 [I-422, (S)-2,2-difluoro-N-(2-methyl-7-((2-(methylsulfonyl)-4-((R)-tetrahydrofuran-2-yl)phenyl)amino)-3H-imidazo[4,5-b]pyridin-5-yl)cyclopropane-1-carboxamide] |
| 0.1 to 0.5 nM | COCc1ccc(Nc2cc(NC(=O)C3CC3)nc3[nH]c(C)nc23)c(S(C)(=O)=O)c1 [I-223, N-(7-((4-(methoxymethyl)-2-(methylsulfonyl)phenyl)amino)-2-methyl-3H-imidazo[4,5-b]pyridin-5-yl)cyclopropanecarboxamide] |
| 0.1 to 0.5 nM | COCCCc1cnc(-c2ccc(Nc3cc(NC(=O)C4CC4)nc4[nH]c(C(F)F)nc34)c(S(C)(=O)=O)c2)s1 [I-584, N-(2-(difluoromethyl)-7-((4-(5-(3-methoxypropyl)thiazol-2-yl)-2-(methylsulfonyl)phenyl)amino)-3H-imidazo[4,5-b]pyridin-5-yl)cyclopropanecarboxamide] |
| 0.1 to 0.5 nM | CN(c1cc(-c2cnn(C)c2)ccc1Nc1cc(NC(=O)C2CC2)nc2[nH]c(C(F)F)nc12)S(C)(=O)=O [I-65, N-(2-(difluoromethyl)-7-((4-(1-methyl-1H-pyrazol-4-yl)-2-(N-methylmethylsulfonamido)phenyl)amino)-3H-imidazo[4,5-b]pyridin-5-yl)cyclopropanecarboxamide] |
| 0.1 to 0.5 nM | CC1(C)CC[C@@H](c2ccc(Nc3cc(NC(=O)C4CC4)nc4[nH]c(C(F)F)nc34)c(S(C)(=O)=O)c2)OC1 [I-353] |
| 0.1 to 0.5 nM | CN=[S@](C)(=O)c1ccccc1Nc1cc(NC(=O)C2CC2)nc2[nH]c(C(F)F)nc12 [I-395] |
| 0.1 to 0.5 nM | Cc1nc2c(Nc3ccc(-c4ccn(C)n4)cc3S(C)(=O)=O)cc(NC(=O)[C@@H]3C[C@@H]3F)nc2[nH]1 [I-211, (1S,2S)-2-fluoro-N-(2-methyl-7-((4-(1-methyl-1H-pyrazol-3-yl)-2-(methylsulfonyl)phenyl)amino)-3H-imidazo[4,5-b]pyridin-5-yl)cyclopropane-1-carboxamide] |
| 0.1 to 0.5 nM | Cc1nc2c(Nc3ccc([C@@H]4CCCCO4)cc3S(C)(=O)=O)cc(NC(=O)[C@H]3CC3(F)F)nc2[nH]1 [I-278, (R)-2,2-difluoro-N-(2-methyl-7-((2-(methylsulfonyl)-4-((S)-tetrahydro-2H-pyran-2-yl)phenyl)amino)-3H-imidazo[4,5-b]pyridin-5-yl)cyclopropane-1-carboxamide] |
